Laboratory results published in patent publication US5840940A, “Linoleoylamide based ceramide derivative and its use in cosmetic preparations for the treatment of dry skin” (Gist-Brocades B.V., priority 1994, dated 1998).
Entries after “also recorded” stand apart in the source; their conditions may differ.

What was measured:
[1] = Solubility in emollients (visual inspection, maximum concentration before the solution turned cloudy); assay type: physicochemical
Procedure: Increasing amounts of the compound were added to the solvent and stirred under nitrogen for 30 minutes at 45° C. After cooling to room temperature (22°±2° C.) the solutions were kept in the dark. After 1, 24 and 48 hours the solutions were visually inspected. The maximum concentration was determined before the solution turned cloudy, indicating the presence of insoluble crystals.

SDS-damaged skin [2] = assay: Trans-epidermal water loss (TEWL) / barrier recovery of SDS-damaged skin (Tewameter); assay type: in vivo, female volunteers (human)
Procedure: Measurements of trans-epidermal water loss (TEWL) were performed with the Tewameter (Courage & Khazaka, Cologne, Germany). The Tewameter is a device for measurement of water evaporation on skin surfaces based on the diffusion principle discovered by A. Fick in 1885.
Five female volunteers at the age of 22-43 years with healthy skin were included in the test.
Measurements were carried out at a temperature of 22°±1° C. and a relative humidity of 60±10%. Subjects were accustomed to ambient conditions for 20 min prior to any measurement. The test was carried out on the volar forearms. The skin of the forearms was treated with a 5% aqueous solution of sodium lauryl sulphate (SDS) and an occlusive dressing applied. The dressing was removed 2 h later, and the regions gently washed with water and air-dried. After 30 min the measurements were done. Then the three test products were applied, one area remained untreated. The dose of application was about 2 mg/cm^2. In the following 14 days a home application in the morning and evening took place.
Measurements were evaluated during the treatment period on day 3, 7 and 14 one hour after the last daily application. Use of other cosmetic products was restricted on the test areas throughout the whole study.

SDS-damaged skin [3] = assay: Skin humidity of SDS-damaged skin (corneometer CM 820 PC); assay type: in vivo, female volunteers (human); conditions: creams with 0.2% and 0.5% ceramide IIIA, 14 days, compared to placebo
Procedure: (§1) The corneometer CM 820 PC (Courage and Khazaka, Cologne, Germany) registers the electrical capacitance of the skin surface, which is a measure of the degree of moisture on the skin's surface. The capacitance is expressed digitally in arbitrary units (a.u.). Three measurements were performed on each test area and the mean was used to define hydration state of the stratum corneum.
(§2) The corneometer comprises a console and its sensor. The sensor is connected to the console by a special plug and coiled cable. The measurement is indicated on the 40×18 mm display screen on the console as a three-place number. The display also fulfils other information functions.
The sensor is rectangular in shape. Its special glass coated active front surface can be moved axially, and has a stroke of at least 3 mm. The measuring principle demands that the sensor surface be placed flat on the test object at a constant pressure. In order to ensure this as reproducibly as possible, the front surface of the measuring head has been designed to be very small (7×7 mm). […]
(§3) The corneometer is completely automatic in operation. In order to carry out a measurement, the measuring head is pressed against the area of skin to be measured. […]
Measurements were evaluated during the treatment period on day 3, 7 and 14 one hour after the last daily application. […]

healthy skin = assay: Skin humidity of healthy skin (corneometer CM 820 PC), long-term effects of ceramide IIIA; assay type: in vivo, female volunteers (human); conditions: creams with 0.2% and 0.5% ceramide IIIA, twice daily, 28 days, compared to placebo
Procedure: as §1, §2
The sensor is rectangular in shape. Its special glass coated active front surface can be moved axially, and has a stroke of at least 3 mm. […]
as §3
Measurements were carried out at a temperature of 22°±1° C. and a relative humidity of 60±10%. […] Initially untreated skin was measured in all three areas to find baseline values. […]
Measurements were evaluated during the treatment period on day 7, 14 and 28 two hours after the last daily application. The application was ceased on day 28 and further measurements were evaluated on day 30 and 32. […]

[4] = isocetyl alcohol (Eutanol G16) and/or isostearic acid (Emersol)
[5] = isocetyl alcohol (Eutanol G16), stirred 45° C., room temperature (22°±2° C.), 1, 24 and 48 hours

Row | Structure (SMILES) | Solubility, in words ([1]; emollient solvents, compared with saturated analogue and ceramide 1) | Solubility [1, 4] | Solubility [1, 5] | Trans-epidermal water loss (SDS-damaged skin [2]; SDS-damaged skin, 14 days treatment, compared to placebo) | Restoration of the barrier layer (SDS-damaged skin [2]; surfactant (SDS)-pretreated skin, compared to placebo product) | Moisturizing effect (skin humidity) (SDS-damaged skin [3]) | Moisturizing effect (skin humidity) (healthy skin)
1 | CCCCC/C=C\C/C=C\CCCCCCCC(=O)N[C@@H](CO)[C@H](O)[C@H](O)CCCCCCCCCCCCCC [Ceramide IIIA, N-linoleoylphytosphingosine] | solubilizes much better than its saturated analogue and than ceramide 1 | ≥ 1 % (w/v) | 5 % w/v | a reduction of trans-epidermal water loss | high capacity for restoration of the impaired lipid barrier of the skin; also recorded: quicker recovery of the barrier layer of SDS-treated skin than the placebo product | increase of skin humidity of damaged skin compared to placebo | clear moisture-retaining effect on healthy skin; also recorded: clear moisturizing effect compared to placebo
2 | CCCCCCCCCCCCCCCCCC(=O)N[C@@H](CO)[C@H](O)[C@H](O)CCCCCCCCCCCCCC [Ceramide III, N-stearoylphytosphingosine, reference compound] |  | less than 0.2 % (w/v) | 0.16 % w/v |  |  |  | 
